Reference: patent US9487510B2, “Substituted heterocyclic acetamides as kappa opioid receptor (KOR) agonists” (Dr. Reddy's Laboratories Ltd., priority 2012, dated 2016)
Structures can show the parent of a compound that is named as a salt.

Target: human KOR receptor (Homo sapiens, UniProt P41145)
Experiment: IP-One HTRF assay, potency of KOR agonists, dose-response in transiently transfected COS-7 cells
Type: cell-based

Sequence of human KOR receptor (P41145 whole entry): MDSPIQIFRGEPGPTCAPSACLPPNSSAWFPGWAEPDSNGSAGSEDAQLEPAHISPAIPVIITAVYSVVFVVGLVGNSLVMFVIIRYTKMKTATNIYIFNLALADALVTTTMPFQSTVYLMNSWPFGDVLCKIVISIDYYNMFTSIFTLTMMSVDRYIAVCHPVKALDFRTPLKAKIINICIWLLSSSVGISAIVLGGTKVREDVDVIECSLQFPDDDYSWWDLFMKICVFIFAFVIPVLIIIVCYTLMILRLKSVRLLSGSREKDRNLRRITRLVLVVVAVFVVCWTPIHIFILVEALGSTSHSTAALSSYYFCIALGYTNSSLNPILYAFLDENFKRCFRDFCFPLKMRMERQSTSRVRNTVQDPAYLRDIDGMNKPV

Compound | EC50
CN(C(=O)Cc1ccc2sc(=O)[nH]c2c1)[C@H](CN1CC[C@H](O)C1)c1cccc(C(=O)NCC(F)(F)F)c1 [Example 228, 3-((S)-2-((S)-3-hydroxypyrrolidin-1-yl)-1-(N-methyl-2-(2-oxo-2,3-dihydrobenzo[d]thiazol-5-yl)acetamido)ethyl)-N-(2,2,2-trifluoroethyl)benzamide] | ≤ 50 nM
CCCN(C(=O)Cc1ccc2c(c1)NC(=O)CS2(=O)=O)[C@H](CN1CC[C@H](O)C1)c1cccc(OC(F)(F)F)c1 [Example 137, 2-(1,1-dioxido-3-oxo-3,4-dihydro-2H-benzo[b][1,4]thiazin-6-yl)-N-((S)-2-((S)-3-hydroxypyrrolidin-1-yl)-1-(3-(trifluoromethoxy)phenyl)ethyl)-N-propylacetamide] | ≤ 50 nM
CCN(CC)C(=O)COc1cccc([C@@H](CN2CC[C@H](O)C2)N(C)C(=O)Cc2ccc3sc(=O)[nH]c3c2)c1 [Example 42, N-((S)-1-(3-(2-(diethylamino)-2-oxoethoxy)phenyl)-2-((S)-3-hydroxypyrrolidin-1-yl)ethyl)-N-methyl-2-(2-oxo-2,3-dihydrobenzo[d]thiazol-5-yl)acetamide] | ≤ 50 nM
CN(C(=O)Cc1ccc2oc(=O)n(Cc3ccccc3)c2c1)[C@H](CN1CCCC1)c1cccc(OCc2ccccc2)c1 [Example 64, (S)-2-(3-benzyl-2-oxo-2,3-dihydrobenzo[d]oxazol-5-yl)-N-(1-(3-(benzyloxy)phenyl)-2-(pyrrolidin-1-yl)ethyl)-N-methylacetamide] | ≤ 50 nM
Cc1nc(-c2cccc([C@@H](CN3CC[C@H](O)C3)N(C)C(=O)Cc3ccc4c(c3)NC(=O)C4)c2)no1 [Example 35, N-((S)-2-((S)-3-hydroxypyrrolidin-1-yl)-1-(3-(5-methyl-1,2,4-oxadiazol-3-yl)phenyl)ethyl)-N-methyl-2-(2-oxoindolin-6-yl)acetamide] | ≤ 50 nM
CN(C(=O)Cc1ccc2c(c1)N(Cc1ccccc1)S(=O)(=O)C2)[C@H](CN1CC[C@H](O)C1)c1ccccc1 [Example 135, 2-(1-benzyl-2,2-dioxido-1,3-dihydrobenzo[c]isothiazol-6-yl)-N-((S)-2-((S)-3-hydroxypyrrolidin-1-yl)-1-phenylethyl)-N-methylacetamide] | ≤ 50 nM
CN(C(=O)Cc1ccc2c(c1)NC(=O)C2)[C@H](CN1CC[C@H](F)C1)c1cccc(C#N)c1 [Example 25, N-((S)-1-(3-cyanophenyl)-2-((S)-3-fluoropyrrolidin-1-yl)ethyl)-N-methyl-2-(2-oxoindolin-6-yl)acetamide] | ≤ 50 nM
CN(C(=O)Cc1ccc2c(c1)NC(=O)C2)[C@H](CN1CC[C@H](O)C1)c1cccc(C(N)=O)c1 [Example 24, 3-((S)-2-((S)-3-hydroxypyrrolidin-1-yl)-1-(N-methyl-2-(2-oxoindolin-6-yl)acetamido)ethyl) benzamide] | ≤ 50 nM
O=C1CSc2ccc(CC(=O)N[C@H](CN3CCCC3)c3ccccc3)cc2N1 [Example 127, (S)-2-(3-oxo-3,4-dihydro-2H-benzo [b][1,4]thiazin-6-yl)-N-(1-phenyl-2-(pyrrolidin-1-yl)ethyl)acetamide] | ≤ 50 nM
O=C1Cc2cc(CC(=O)N[C@H](CN3CC[C@H](O)C3)c3ccccc3)ccc2N1 [Example 157, N-((S)-2-((S)-3-hydroxypyrrolidin-1-yl)-1-phenylethyl)-2-(2-oxoindolin-5yl)acetamide] | ≤ 50 nM
O=C(O)Cn1c(=O)oc2ccc(CC(=O)N[C@H](CN3CCCC3)c3ccccc3)cc21 [Example 83, (S)-2-(2-oxo-5-(2-oxo-2-(1-phenyl-2-(pyrrolidin-1-yl)ethylamino)ethyl)benzo[d]oxazol-3(2H)-yl)acetic acid hydrochloride] | ≤ 50 nM
CN(C(=O)Cc1ccc2c(c1)NC(=O)CS2)[C@H](CN1CC[C@H](O)C1)c1cccc(C(=O)O)c1 [Example 154, 3-((S)-2-((S)-3-hydroxypyrrolidin-1-yl)-1-(N-methyl-2-(3-oxo-3,4-dihydro-2H-benzo[b][1,4]thiazin-6-yl)acetamido)ethyl)benzoic acid] | ≤ 50 nM
CN(C(=O)Cc1ccc2sc(=O)[nH]c2c1)[C@H](CN1CC[C@H](O)C1)c1cccc(-c2noc(C(F)(F)F)n2)c1 [Example 184, N-((S)-2-((S)-3-hydroxypyrrolidin-1-yl)-1-(3-(5-(trifluoromethyl)-1,2,4-oxadiazol-3-yl)phenyl)ethyl)-N-methyl-2-(2-oxo-2,3-dihydrobenzo[d]thiazol-5-yl)acetamide] | ≤ 50 nM
O=C(O)COc1cccc([C@@H](CN2CCCC2)NC(=O)Cc2ccc3oc(=O)[nH]c3c2)c1 [Example 85, (S)-2-(3-(1-(2-(2-oxo-2,3-dihydrobenzo[d]oxazol-5-yl)acetamido)-2-(pyrrolidin-1-yl)ethyl)phenoxy)acetic acid hydrochloride] | ≤ 50 nM
Cc1csc(-c2cccc([C@@H](CN3CC[C@H](O)C3)N(C)C(=O)Cc3ccc4c(c3)NC(=O)C4)c2)n1 [Example 218, N-((S)-2-((S)-3-hydroxypyrrolidin-1-yl)-1-(3-(4-methylthiazol-2-yl)phenyl)ethyl)-N-methyl-2-(2-oxoindolin-6-yl)acetamide] | ≤ 50 nM
CN(C(=O)Cc1ccc2c(c1)NC(=O)CO2)[C@H](CN1CC[C@H](O)C1)c1cccc(C#N)c1 [Example 153, N-((S)-1-(3-cyanophenyl)-2-((S)-3-hydroxypyrrolidin-1-yl)ethyl)-N-methyl-2-(3-oxo-3,4-dihydro-2H-benzo[b][1,4]oxazin-6-yl)acetamide] | ≤ 50 nM
CC(C)(C(=O)N[C@H](CN1CC[C@H](O)C1)c1ccccc1)c1ccc2oc(=O)[nH]c2c1 [Example 55, N-((S)-2-((S)-3-hydroxypyrrolidin-1-yl)-1-phenylethyl)-2-methyl-2-(2-oxo-2,3-dihydrobenzo[d]oxazol-5-yl)propanamide] | ≤ 50 nM
CN(C(=O)Cc1ccc2oc(=O)[nH]c2c1)C(CN1CC[C@H](O)C1)c1cccc(OCc2nn[nH]n2)c1 (stereo in doubt) [Example 105, (R)-N-(1-(3-((2H-tetrazol-5-yl)methoxy)phenyl)-2-(3-hydroxypyrrolidin-1-yl)ethyl)-N-methyl-2-(2-oxo-2,3-dihydrobenzo[d]oxazol-5-yl)acetamide] | ≤ 50 nM
CN(C(=O)Cc1ccc2c(c1)NC(=O)C2)[C@H](CN1CC[C@H](O)C1)c1cccc(-c2nccs2)c1 [Example 36, N-((S)-2-((S)-3-hydroxypyrrolidin-1-yl)-1-(3-(thiazol-2-yl)phenyl)ethyl)-N-methyl-2-(2-oxoindolin-6-yl)acetamide] | 51 to 100 nM
CN(C(=O)Cc1ccc2c(c1)NC(=O)CS2(=O)=O)[C@H](CN1CC[C@H](O)C1)c1cccc(OCC(=O)O)c1 [Example 22, 2-(3-((S)-1-(2-(1,1-dioxido-3-oxo-3,4-dihydro-2H-benzo[b][1,4]thiazin-6-yl)-N-methylacetamido)-2-((S)-3-hydroxypyrrolidin-1-yl)ethyl)phenoxy)acetic acid] | ≤ 50 nM
CCc1nc(-c2cccc([C@@H](CN3CC[C@H](O)C3)N(C)C(=O)Cc3ccc4c(c3)NC(=O)C4)c2)no1 [Example 214, N-((S)-1-(3-(5-ethyl-1,2,4-oxadiazol-3-yl)phenyl)-2-((S)-3-hydroxypyrrolidin-1-yl)ethyl)-N-methyl-2-(2-oxoindolin-6-yl)acetamide] | ≤ 50 nM
CC(C)N(C(=O)Cc1ccc2c(c1)NC(=O)CS2(=O)=O)[C@H](CN1CC[C@H](O)C1)c1cccc(OC(F)(F)F)c1 [Example 138, 2-(1,1-dioxido-3-oxo-3,4-dihydro-2H-benzo[b][1,4]thiazin-6-yl)-N-((S)-2-((S)-3-hydroxypyrrolidin-1-yl)-1-(3-(trifluoromethoxy)phenyl)ethyl)-N-isopropylacetamide] | 51 to 100 nM
CN(C)C(=O)c1cccc([C@@H](CN2CC[C@H](O)C2)N(C)C(=O)Cc2ccc3c(c2)NC(=O)C3)c1 [Example 207, 3-((S)-2-((S)-3-hydroxypyrrolidin-1-yl)-1-(N-methyl-2-(2-oxoindolin-6-yl)acetamido)ethyl)-N,N-dimethylbenzamide] | ≤ 50 nM
CCN(C(=O)Cc1ccc2c(c1)NC(=O)CS2(=O)=O)[C@H](CN1CC[C@H](O)C1)c1cccc(OC(F)(F)F)c1 [Example 14, 2-(1,1-dioxido-3-oxo-3,4-dihydro-2H-benzo[b][1,4]thiazin-6-yl)-N-ethyl-N-((S)-2-((S)-3-hydroxypyrrolidin-1-yl)-1-(3-(trifluoromethoxy)phenyl)ethyl)acetamide] | ≥ 1000 nM
CN(C(=O)Cc1ccc2c(c1)NC(=O)C2)[C@H](CN1CC[C@H](O)C1)c1cccc(-c2nccn2CC2CC2)c1 [Example 226, N-((S)-1-(3-(1-(cyclopropylmethyl)-1H-imidazol-2-yl)phenyl)-2-((S)-3-hydroxypyrrolidin-1-yl)ethyl)-N-methyl-2-(2-oxoindolin-6-yl)acetamide] | ≤ 50 nM
CN(C(=O)Cc1ccc2c(c1)NC(=O)CS2(=O)=O)[C@H](CN1CC[C@H](O)C1)c1cccc(C(F)(F)F)c1 [Example 123, 2-(1,1-dioxido-3-oxo-3,4-dihydro-2H-benzo[b][1,4]thiazin-6-yl)-N-((S)-2-((S)-3-hydroxypyrrolidin-1-yl)-1-(3-(trifluoromethyl)phenyl)ethyl)-N-methylacetamide] | ≤ 50 nM
Cc1nc(-c2cccc([C@@H](CN3CC[C@H](O)C3)N(C)C(=O)Cc3ccc4ncc(=O)[nH]c4c3)c2)no1 [Example 194, N-((S)-2-((S)-3-hydroxypyrrolidin-1-yl)-1-(3-(5-methyl-1,2,4-oxadiazol-3-yl)phenyl)ethyl)-N-methyl-2-(3-oxo-3,4-dihydroquinoxalin-6-yl)acetamide] | ≤ 50 nM
O=C1CS(=O)(=O)c2ccc(CC(=O)N[C@H](CN3CC[C@H](O)C3)c3ccccc3)cc2N1 [Example 122, 2-(1,1-dioxido-3-oxo-3,4-dihydro-2H-benzo[b][1,4]thiazin-6-yl)-N-((S)-2-((S)-3-hydroxypyrrolidin-1-yl)-1-phenylethyl)acetamide] | ≤ 50 nM
CN(C(=O)Cc1ccc2ncc(=O)[nH]c2c1)[C@H](CN1CC[C@H](O)C1)c1cccc(C(=O)O)c1 [Example 31, 3-((S)-2-((S)-3-hydroxypyrrolidin-1-yl)-1-(N-methyl-2-(3-oxo-3,4-dihydroquinoxalin-6-yl)acetamido)ethyl)benzoic acid] | ≤ 50 nM
